Assay results reported in patent US5989521A, “Method for augmenting a decreased level of reduced glutathione in the lung” (The United States of America as represented by the …, priority 1991, dated 1999).
Like-named read-outs stand apart in the source and are kept apart here.

Assays:
[1] = preparation reconstituted in 0.9% saline; cited from earlier work
[2] = in vivo
Text: Study Population. The study population included 13 male and 1 female HIV-seropositive individuals (average age 32±2 yr)(all data are presented as mean ± standard error of the mean; all statistical comparisons were made using the two-tailed Student's t-test). The diagnosis of HIV infection was confirmed by ELISA and Western blot analysis. All belonged to defined risk groups (13 homosexuals, 1 with heterosexual contact with an infected partner). None were smokers, 9 were untreated, and 5 were receiving azidothymidine, and two were receiving once monthly pentamidine by aerosol.
Biologic Samples. Venous plasma and bronchoalveolar lavage fluid were obtained by standard technique (Saltini, C. et al. (1984) Am Rev Resp Dis 130:650-658). Portions of the lavage fluid were taken for glutathione assays (see below), cell counts (total cell and CD4+ and CD8+ subtypes), and for cytocentrifuge preparations for differential counts. The cells were pelleted and the supernatant was used to quantify the amount of ELF recovered using the urea method (Rennard, S.I. et al. (1986) J Appl Physiol 60:532-538).
Study Design. […]
Glutathione Levels and Form. Glutathione levels in venous plasma, and bronchoalveolar lavage fluid were quantified with minor modifications of standard methods, as previously described (Buhl, R. et al (1989) Lancet 2:1294-1298).

[3] = system: cytotoxic T-lymphocyte cell line CT-4R
Method: (§1) T-lymphocyte Proliferation Assays. Cell proliferation in the presence of pre-aerosol compared to post-aerosol concentrations of reduced glutathione was tested on the cytotoxic T-lymphocyte cell lines CT-4R and CTLL-2 (Liang, C-M. et al. (1989) J Biol Chem 264:13519-13523). In 96-well flat bottom plates were placed 50,000 cells of the respective cell lines, suspended in 200 μl Dulbecco's Modified Eagle Medium with 10% fetal calf serum, with either 150 μM or 280 μM reduced glutathione added. The IL-2 dependent cell line CTLL-2 had 0.3 units/ml IL-2 (Genzyme) added in each well. After 18 hr culture in a 10% CO2 incubator at 37° C., 0.5 μCi of ^3 H-thymidine was added for 4 hr, followed by harvesting of cells onto glass fiber filters and scintillation counting for 1 minute. All proliferation assays were done in triplicate.

[4] = system: cytotoxic T-lymphocyte cell line CTLL-2; details: 0.3 units/ml IL-2
Method: as §1

alveolar macrophages = details: 600 mg twice daily for 3 days, 1 hr after last dose, all individuals (p=0.02)
Method: (§2) Ten individuals with IPF (6 male, 4 female, 46±3 yr) defined by standard clinical criteria (Crystal, R. G. et al. (1984) N. Engl. J. Med. 310: 154-166, and 310: 235-244; Turner-Warwick, M. et al. (1980) Thorax. 35: 171-180) received aerosolized GSH; 19 normal nonsmokers (14 male, 5 female, 36±3 yr) (Buhl, R. et al. (1989) Lancet. 2: 1294-1298) served as controls for GSH levels. […] An aerosol of 600 mg GSH was administered every 12 hr for 3 days. Respiratory ELF, obtained by lavage, was evaluated before therapy, and 1 hr after the first or last (sixth) aerosol, and plasma before and 1 hr after the last aerosol. Total glutathione, oxidized glutathione (GSSG) and reduced glutathione (GSH) levels in ELF and plasma were quantified as previously described (Buhl, R. et al. (1990) Proc. Natl. Acad. Sci. USA. 87:4063-4067; Buhl, R. et al. (1989) Lancet. 2: 1294-1298). Spontaneous O2^- release from adherent alveolar macrophages was measured by the reduction of ferricytochrome C (Buhl, R. et al. (1990) Proc. Natl. Acad. Sci. USA. 87:4063-4067). All data are presented as mean ± standard error of the mean. The two-tailed Student's t-test was used to compare ELF glutathione levels in normal and IPF individuals and the results presented as exact p values and degrees of freedom (df). The Wilcoxon paired nonparametric test was used to compare pre- and post-aerosol therapy ELF GSH levels and spontaneous O2^- release by alveolar macrophages, and the results presented as exact p values.

[5] = Method: as §2
[6] = intravenous administration; cited from earlier work
[7] = in vivo; remark: listed apart in the source
Text: To evaluate possible toxicity of the glutathione aerosol, symptoms, physical examination, routine blood studies, chest x-ray, electrocardiogram, renal function, arterial blood gases, and tests of pulmonary function (forced vital capacity, forced expiratory volume in one second, total lung capacity, diffusing capacity) were followed carefully throughout the study. In addition, visual examination of the respiratory mucosa and analysis of differential cell count in bronchoalveolar lavage fluid were performed before the first aerosol and after administration of the last aerosol.
Study Design. Venous plasma and bronchoalveolar lavage fluid were obtained before GSH administration. An aerosol of 600 mg GSH in 4 ml of saline was then administered over a 25 min period twice a day for three days. Following the last aerosol, venous plasma and bronchoalveolar lavage fluid were again obtained at intervals up to 3 hr after the last aerosol. All measurements were carried out in duplicate.

Remark: listed apart in the source

In the case of `N[C@@H](CCC(=O)N[C@@H](CS)C(=O)NCC(=O)O)C(=O)O` [GSH, L-γ-glutamyl-L-cysteinyl-glycine], the “effect of aerosolization on the form of the GSH” value [1] is listed as “did not alter the form”, the “oxidized glutathione as percentage of total glutathione in ELF” value [2] is listed as 44±18% and the “proliferation (3H-thymidine incorporation)” value (from here on “proliferation”) ([3]; 150 μM reduced glutathione (pre-therapy concentration)) is listed as 7478±550 cpm. For the same compound, the “proliferation” value ([3]; 280 μM reduced glutathione (post-therapy concentration)) was 10,752±376 cpm, the “proliferation” value ([4]; CTLL-2, 150 μM reduced glutathione) was 5077±69 cpm and the “proliferation” value ([4]; CTLL-2, 280 μM reduced glutathione) was 5792±219 cpm. The “spontaneous O2- release by alveolar macrophages” value (alveolar macrophages) was “decrease”, the “adverse effects associated with GSH aerosol administration” value ([5]; 600 mg every 12 hr for 3 days) was “No adverse effects” and the “ELF oxidized glutathione compared to baseline” value ([5]; 600 mg twice daily for 3 days, 1 hr after last dose, all individuals (p=0.02)) was “significant increase”. For the same compound, the “total glutathione in ELF versus pre-therapy” value ([5]; 1 hr after the first aerosol of 600 mg GSH (p=0.005)) was “increased”, the “plasma glutathione levels following aerosolization” value ([5]; 1 hr after the last aerosol (p=0.59)) was “did not change” and the “average level of total glutathione in ELF versus pre-therapy” value ([5]; after repeated dosing for 3 days, 1 hr after last aerosol (p=0.55)) was “higher than the pre-therapy level, but not significantly so”. For the same compound, the serum half-life [6] was under 2 min, the “inflammation of the lower respiratory tract” value [7] was “did not result in inflammation” and the “physical examination and all clinical studies” value [7] was “remained stable”. For the same compound, the “pulmonary function tests and arterial blood gases” value [7] was “unchanged”, the “mass median aerodynamic diameter of the aerosol droplets” value (150 mg/ml GSH in 0.9% NaCl, nebulizer at 40 psi, laser particle-size analysis) was 2.8 μm and the “glutathione in the reduced form” value (in the aerosolized droplets) was 97.0±0.6%. The “glutathione in the reduced form” value (pre-aerosol preparations) was 98.2±0.1%.
